Results taken from BindingDB's records for doi:10.1016/s0960-894x(03)00589-4 (University of California Irvine, 2003).

Assay: Inhibitory concentration required against protein phosphatase 1 using pNPP assay
In the case of `CO[C@@H](Cc1ccccc1)[C@@H](C)/C=C(C)/C=C/[C@H](NC(C)=O)[C@H](C)C(=O)N[C@H](CCC(=O)N(C)C)C(=O)O` [(R)-2-((4E,6E)-(2S,3S,8S,9S)-3-Acetylamino-9-methoxy-2,6,8-trimethyl-10-phenyl-deca-4,6-dienoylamino)-4-dimethylcarbamoyl-butyric acid], the IC50 is reported as greater than 100 µM. `CO[C@@H](Cc1ccccc1)[C@@H](C)/C=C(C)/C=C/[C@H](NC(C)=O)[C@H](C)C(=O)N[C@H](CCC(=O)N(C)CC(=O)N[C@H](C)C(=O)O)C(=O)O` [(R)-2-((4E,6E)-(2S,3S,8S,9S)-3-Acetylamino-9-methoxy-2,6,8-trimethyl-10-phenyl-deca-4,6-dienoylamino)-4-{[((R)-1-carboxy-ethylcarbamoyl)-methyl]-methyl-carbamoyl}-butyric acid] gave an IC50 of 400 µM. Molecule `C=C(C(=O)N[C@H](C)C(=O)N[C@@H](CC(C)C)C(=O)O)N(C)C(=O)CC[C@@H](NC(=O)[C@@H](C)[C@H](/C=C/C(C)=C/[C@H](C)[C@H](Cc1ccccc1)OC)NC(C)=O)C(=O)O` [(S)-2-[(R)-2-(2-{[(R)-4-((4E,6E)-(2S,3S,8S,9S)-3-Acetylamino-9-methoxy-2,6,8-trimethyl-10-phenyl-deca-4,6-dienoylamino)-4-carboxy-butyryl]-methyl-amino}-acryloylamino)-1-oxo-propylamino]-4-methyl-pentanoic acid] has an IC50 of 75 µM. `COC(=O)[C@@H](CCC(=O)N(C)C)NC(=O)[C@@H](C)[C@H](/C=C/C(C)=C/[C@H](C)[C@H](Cc1ccccc1)OC)NC(C)=O` [(R)-2-((4E,6E)-(2S,3S,8S,9S)-3-Acetylamino-9-methoxy-2,6,8-trimethyl-10-phenyl-deca-4,6-dienoylamino)-4-dimethylcarbamoyl-butyric acid methyl ester] showed an IC50 greater than 100 µM. For `CO[C@@H](Cc1ccccc1)[C@@H](C)/C=C(C)/C=C/[C@H](NC(C)=O)[C@H](C)C(=O)N[C@H](CCC(=O)N(C)CC(=O)N[C@H](C)C(=O)N[C@@H](CC(C)C)C(=O)O)C(=O)O` [(S)-2-[(R)-2-(2-{[(R)-4-((4E,6E)-(2S,3S,8S,9S)-3-Acetylamino-9-methoxy-2,6,8-trimethyl-10-phenyl-deca-4,6-dienoylamino)-4-carboxy-butyryl]-methyl-amino}-acetylamino)-1-oxo-propylamino]-4-methyl-pentanoic acid], the IC50 was 230 µM.
